The structures appear in SMILES notation. Where two headings read alike, the source gives them in different places.

The target of experiment [1] is T1, Recombinant BTK^C481S kinase (Homo sapiens, UniProt Q06187, C481S).
T1 construct: purchased SignalChem
Put plainly: BTK C481S binding affinity (LanthaScreen TR-FRET). Particulars: Kinase Tracer 236, 5 h incubation. In short, it runs like this:
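BTK C481S tracer-displacement TR-FRET: 5 nM His-tagged kinase, 2 nM Eu anti-His antibody and 30 nM Kinase Tracer 236 incubated with titrated inhibitor for 5 h in Kinase Buffer A. Read at 340 nm excitation, 615/665 nm emission; IC50 from variable-slope log[inhibitor]–response fit.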
In general terms: In TR-FRET formats the signal depends on donor and acceptor labels being close together.

For the next experiment, the target named is T2, Recombinant EGFR (Homo sapiens, UniProt P00533).
T2 construct: purchased Invitrogen
Put plainly: EGFR binding affinity (LanthaScreen TR-FRET). Particulars: Kinase Tracer 199, 5 h incubation. In short, it runs like this:
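TR-FRET binding (LanthaScreen) with recombinant EGFR; signal measured across a compound concentration range. IC50 obtained by fitting RFU against log[inhibitor] to a variable-slope model.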

Experiment [2] addresses T3, Recombinant BTK^WT kinase (Homo sapiens, UniProt Q06187).
T3 construct: purchased Invitrogen
Put plainly: BTK WT binding affinity (LanthaScreen TR-FRET). Particulars: Kinase Tracer 236, 5 h incubation. In a few lines:
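Tracer-displacement TR-FRET: 2.5 nM recombinant BTK^WT, 2 nM Eu anti-His antibody and 15 nM Kinase Tracer 236 incubated with varying inhibitor concentrations for 5 h in Kinase Buffer A. Signal read at 340 nm excitation, 615/665 nm emission; IC50 from variable-slope log[inhibitor]–response fit.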

For experiment [3], the system named is OCI-Ly10 human DLBCL cells. Put plainly: OCI-Ly10 anti-proliferative activity (Resazurin). Particulars: OCI-Ly10 cells, 72 h compound treatment, Resazurin, read-out: Proliferation Assay OCI-Ly10-20% FBS. The experiment is classed as cell-based. In a few lines:
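OCI-Ly10 human DLBCL cells, whose growth depends on NFκB signalling, were seeded at 7.5×10^3 cells per well in 96-well plates with a range of compound concentrations and kept at 37° C for 72 h. Resazurin was then added, and after 5 h fluorescence was read at 590 nm.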
On the technique in general: Resazurin is reduced to fluorescent resorufin, in cell work by metabolically active cells.

T1 sequence (Q06187 whole entry C481S): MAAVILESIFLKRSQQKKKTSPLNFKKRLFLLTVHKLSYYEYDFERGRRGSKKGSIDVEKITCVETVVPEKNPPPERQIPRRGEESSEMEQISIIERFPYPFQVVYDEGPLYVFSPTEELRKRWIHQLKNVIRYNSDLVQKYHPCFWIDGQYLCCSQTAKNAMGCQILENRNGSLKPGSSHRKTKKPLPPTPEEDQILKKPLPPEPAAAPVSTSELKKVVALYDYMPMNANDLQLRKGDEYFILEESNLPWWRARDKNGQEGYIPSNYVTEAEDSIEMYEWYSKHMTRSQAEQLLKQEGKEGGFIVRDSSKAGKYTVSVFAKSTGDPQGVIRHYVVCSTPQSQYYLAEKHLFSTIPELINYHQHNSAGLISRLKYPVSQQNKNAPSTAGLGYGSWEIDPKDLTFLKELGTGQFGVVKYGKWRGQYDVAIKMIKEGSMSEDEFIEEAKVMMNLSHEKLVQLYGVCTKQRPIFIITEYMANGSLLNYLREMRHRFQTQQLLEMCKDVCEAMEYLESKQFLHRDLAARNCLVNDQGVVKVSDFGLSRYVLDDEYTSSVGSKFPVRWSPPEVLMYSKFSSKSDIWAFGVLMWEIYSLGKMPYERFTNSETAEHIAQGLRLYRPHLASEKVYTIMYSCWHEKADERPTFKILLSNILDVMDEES
T2 sequence (P00533 25-1210): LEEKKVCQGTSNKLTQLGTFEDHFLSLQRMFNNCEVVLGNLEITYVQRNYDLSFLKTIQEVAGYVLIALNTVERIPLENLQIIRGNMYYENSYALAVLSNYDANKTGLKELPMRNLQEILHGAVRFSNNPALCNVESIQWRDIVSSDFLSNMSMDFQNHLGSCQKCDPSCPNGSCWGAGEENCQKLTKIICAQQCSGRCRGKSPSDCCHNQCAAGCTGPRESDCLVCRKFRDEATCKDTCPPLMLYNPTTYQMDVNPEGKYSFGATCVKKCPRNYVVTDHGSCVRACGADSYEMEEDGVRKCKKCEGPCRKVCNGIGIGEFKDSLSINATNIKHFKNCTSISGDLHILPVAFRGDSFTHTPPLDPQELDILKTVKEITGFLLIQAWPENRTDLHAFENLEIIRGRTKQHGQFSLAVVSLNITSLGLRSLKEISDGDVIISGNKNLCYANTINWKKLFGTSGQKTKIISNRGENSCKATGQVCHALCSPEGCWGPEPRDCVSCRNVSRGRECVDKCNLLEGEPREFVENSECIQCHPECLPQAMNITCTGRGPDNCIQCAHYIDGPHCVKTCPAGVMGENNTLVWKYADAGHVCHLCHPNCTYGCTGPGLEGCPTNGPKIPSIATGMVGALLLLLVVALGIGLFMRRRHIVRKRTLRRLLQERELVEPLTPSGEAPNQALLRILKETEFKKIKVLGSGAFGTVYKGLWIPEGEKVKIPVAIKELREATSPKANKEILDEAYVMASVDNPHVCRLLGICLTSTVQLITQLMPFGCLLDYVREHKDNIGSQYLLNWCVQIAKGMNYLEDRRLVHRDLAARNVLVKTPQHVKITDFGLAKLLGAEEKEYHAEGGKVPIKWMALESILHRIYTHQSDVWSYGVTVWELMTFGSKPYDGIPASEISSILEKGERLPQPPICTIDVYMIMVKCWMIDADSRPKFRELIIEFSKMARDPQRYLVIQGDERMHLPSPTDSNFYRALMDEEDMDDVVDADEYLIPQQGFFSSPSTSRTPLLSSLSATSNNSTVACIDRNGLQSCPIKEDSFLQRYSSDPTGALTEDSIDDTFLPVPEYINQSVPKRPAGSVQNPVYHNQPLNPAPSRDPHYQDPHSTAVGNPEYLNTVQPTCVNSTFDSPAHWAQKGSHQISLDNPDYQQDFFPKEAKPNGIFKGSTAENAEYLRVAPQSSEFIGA
T3 sequence (Q06187 whole entry): as the sequence (Q06187 whole entry C481S) above, with S481C counted along it

For `COc1ccccc1C(=O)NCc1ccc(-c2nn(CCc3nnn[nH]3)c(N)c2C(N)=O)cc1` [Example 25, 5-Amino-3-[4-[[(2-methoxybenzoyl)amino]methyl]phenyl]-1-[2-(1H-tetrazol-5-yl)ethyl]pyrazole-4-carboxamide], the IC50 in experiment [1] is less than 10 nM; at Recombinant EGFR it was 1000 to 10000 nM; in experiment [2], 10 to 100 nM; in experiment [3] (Homo sapiens, OCI-Ly10, 72 h) it was more than 10000 nM.

As for `COc1ccccc1C(=O)NCc1ccc(-c2nn(C3CN(C)CC3(F)F)c(N)c2C(N)=O)cc1` (centres unmarked) [Example 167, 5-amino-1-(4,4-difluoro-1-methyl-pyrrolidin-3-yl)-3-[4-[[(2-methoxybenzoyl)amino]methyl]phenyl]pyrazole-4-carboxamide], the IC50 is less than 10 nM in experiment [1]; 1000 to 10000 nM on Recombinant EGFR; less than 10 nM in experiment [2]; 10 to 100 nM in experiment [3] (Homo sapiens, OCI-Ly10, 72 h).

With `COc1ccc(F)cc1C(=O)NCc1ccc(-c2nn(C3(C(F)(F)F)CCOCC3)c(N)c2C(N)=O)cc1` [Example 190, 5-Amino-3-[4-[[(5-fluoro-2-methoxy-benzoyl)amino]methyl]phenyl]-1-[4-(trifluoromethyl)tetrahydropyran-4-yl]pyrazole-4-carboxamide], the IC50 in experiment [1] is 10 to 100 nM; on Recombinant EGFR, 1000 to 10000 nM; in experiment [2], 100 to 1000 nM; in experiment [3] (Homo sapiens, OCI-Ly10, 72 h), 1000 to 10000 nM.

Consider `COc1ccccc1C(=O)NCc1ccc(-c2nn(C3CCOCC3(C)C)c(N)c2C(N)=O)cc1` (centres unmarked) [Example 89, 5-amino-1-(3,3-dimethyltetrahydropyran-4-yl)-3-[4-[[(2-methoxybenzoyl)amino]methyl]phenyl]pyrazole-4-carboxamide], for which the IC50 lay in the range of 10 to 100 nM in experiment [1]; 1000 to 10000 nM at Recombinant EGFR; 10 to 100 nM in experiment [2]; 1000 to 10000 nM in experiment [3] (Homo sapiens, OCI-Ly10, 72 h).

Consider `COc1ccc(F)cc1C(=O)NCc1ccc(-c2nn(C(C3CCOC3)C(F)(F)F)c(N)c2C(N)=O)cc1` (mixture of isomers) [Example 175, 5-amino-3-[4-[[(5-fluoro-2-methoxy-benzoyl)amino]methyl]phenyl]-1-(2,2,2-trifluoro-1-tetrahydrofuran-3-yl-ethyl)pyrazole-4-carboxamide], for which the IC50 was 10 to 100 nM in experiment [1]; 1000 to 10000 nM at Recombinant EGFR; 10 to 100 nM in experiment [2]; 100 to 1000 nM in experiment [3] (Homo sapiens, OCI-Ly10, 72 h).

As for `COc1ccc(F)cc1C(=O)NCc1ccc(-c2nn(C3CN(C)CC3(F)F)c(N)c2C(N)=O)cc1` (centres unmarked) [Example 199, 5-amino-1-(4,4-difluoro-1-methyl-pyrrolidin-3-yl)-3-[4-[[(5-fluoro-2-methoxy-benzoyl)amino]methyl]phenyl]pyrazole-4-carboxamide], the IC50 in experiment [1] was less than 10 nM; at Recombinant EGFR, 1000 to 10000 nM; in experiment [2], less than 10 nM; in experiment [3] (Homo sapiens, OCI-Ly10, 72 h), 10 to 100 nM.

Take `COc1ccccc1C(=O)NCc1ccc(-c2nn(-c3ccccc3C)c(N)c2C(N)=O)cc1` [Example 47, 5-amino-3-[4-[[(2-methoxybenzoyl)amino]methyl]phenyl]-1-(o-tolyl)pyrazole-4-carboxamide]: the IC50 in experiment [1] is less than 10 nM; at Recombinant EGFR, 1000 to 10000 nM; in experiment [2], 10 to 100 nM; in experiment [3] (Homo sapiens, OCI-Ly10, 72 h) it was 100 to 1000 nM.

Consider `COc1ccccc1C(=O)NCc1ccc(-c2nn(C)c(N)c2C(N)=O)cc1` [Example 30, 5-Amino-3-[4-[[(2-methoxybenzoyl)amino]methyl]phenyl]-1-methyl-pyrazole-4-carboxamide], for which the IC50 in experiment [1] is 10 to 100 nM; on Recombinant EGFR, more than 10000 nM; in experiment [2], 10 to 100 nM; in experiment [3] (Homo sapiens, OCI-Ly10, 72 h), 100 to 1000 nM.

For `CNc1c(C(N)=O)c(-c2ccc(CNC(=O)c3ccccc3OC)cc2)nn1-c1cccnc1` [Example 110, 3-[4-[[(2-methoxybenzoyl)amino]methyl]phenyl]-5-(methylamino)-1-(3-pyridyl)pyrazole-4-carboxamide], the IC50 in experiment [1] lay in the range of 10 to 100 nM; on Recombinant EGFR it was 1000 to 10000 nM; in experiment [2], 10 to 100 nM; in experiment [3] (Homo sapiens, OCI-Ly10, 72 h), 1000 to 10000 nM.

`COc1ccccc1C(=O)NCc1ccc(-c2nn(-c3cc(F)ccc3F)c(N)c2C(N)=O)cc1` [Example 61, 5-amino-1-(2,5-difluorophenyl)-3-[4-[[(2-methoxybenzoyl)amino]methyl]phenyl]pyrazole-4-carboxamide]: the IC50 in experiment [1] is less than 10 nM; on Recombinant EGFR, 100 to 1000 nM; in experiment [2] it was less than 10 nM; in experiment [3] (Homo sapiens, OCI-Ly10, 72 h) it was 10 to 100 nM.

Take `COc1ccccc1C(=O)NCc1ccc(-c2nn(-c3ccc(C)cc3)c(N)c2C(N)=O)cc1` [Example 44, 5-amino-3-[4-[[(2-methoxybenzoyl)amino]methyl]phenyl]-1-(p-tolyl)pyrazole-4-carboxamide]: the IC50 in experiment [1] was less than 10 nM; on Recombinant EGFR, 100 to 1000 nM; in experiment [2] it was less than 10 nM; in experiment [3] (Homo sapiens, OCI-Ly10, 72 h), 10 to 100 nM.

For `COc1ccccc1C(=O)NCc1ccc(-c2nn([C@H]3CC[C@H](O)C3)c(N)c2C(N)=O)cc1` (relative stereo) [Example 46, 5-Amino-1-[(1S*,3S*)-3-hydroxycyclopentyl]-3-[4-[[(2-methoxybenzoyl)amino]methyl]phenyl]pyrazole-4-carboxamide], the IC50 was less than 10 nM in experiment [1]; 100 to 1000 nM at Recombinant EGFR; less than 10 nM in experiment [2]; 10 to 100 nM in experiment [3] (Homo sapiens, OCI-Ly10, 72 h).

Regarding `CCC(C)n1nc(-c2ccc(CNC(=O)c3ccccc3OC)cc2)c(C(N)=O)c1N` (centres unmarked) [Example 150, 5-amino-3-[4-[[(2-methoxybenzoyl)amino]methyl]phenyl]-1-sec-butyl-pyrazole-4-carboxamide], the IC50 in experiment [1] was less than 10 nM; on Recombinant EGFR, 1000 to 10000 nM; in experiment [2] it was less than 10 nM; in experiment [3] (Homo sapiens, OCI-Ly10, 72 h) it was 10 to 100 nM.

Regarding `COc1ccccc1C(=O)NCc1ccc(-c2nn(C3CCCC3)c(N)c2C(N)=O)c(F)c1` [Example 130, 5-amino-1-cyclopentyl-3-[2-fluoro-4-[[(2-methoxybenzoyl)amino]methyl]phenyl]pyrazole-4-carboxamide], the IC50 is less than 10 nM in experiment [1]; 1000 to 10000 nM on Recombinant EGFR; less than 10 nM in experiment [2]; 10 to 100 nM in experiment [3] (Homo sapiens, OCI-Ly10, 72 h).

On to `COc1ccc(F)cc1C(=O)NCc1cc(F)c(-c2nn(C3CCCC3)c(N)c2C(N)=O)cc1F` [Example 137, 5-amino-1-cyclopentyl-3-[2,5-difluoro-4-[[(5-fluoro-2-methoxy-benzoyl)amino]methyl]phenyl]pyrazole-4-carboxamide], for which the IC50 in experiment [1] is less than 10 nM; at Recombinant EGFR, 1000 to 10000 nM; in experiment [2], less than 10 nM; in experiment [3] (Homo sapiens, OCI-Ly10, 72 h), 10 to 100 nM.

Take `COc1ccccc1C(=O)NCc1ccc(-c2nn(C3CCOCC3F)c(N)c2C(N)=O)cc1` (single isomer, unassigned) [Example 95, 5-amino-1-[3-fluorotetrahydropyran-4-yl]-3-[4-[[(2-methoxybenzoyl)amino]methyl]phenyl]pyrazole-4-carboxamide]: the IC50 in experiment [1] is less than 10 nM; on Recombinant EGFR it was 1000 to 10000 nM; in experiment [2], 10 to 100 nM; in experiment [3], 100 to 1000 nM.

`COc1ccccc1C(=O)NCc1ccc(-c2nn(C3CCCOC3)c(N)c2C(N)=O)c(F)c1F` (centres unmarked) [Example 157, 5-amino-3-[2,3-difluoro-4-[[(2-methoxybenzoyl)amino]methyl]phenyl]-1-tetrahydropyran-3-yl-pyrazole-4-carboxamide]: the IC50 in experiment [1] is less than 10 nM; on Recombinant EGFR, more than 10000 nM; in experiment [2] it was less than 10 nM; in experiment [3] (Homo sapiens, OCI-Ly10, 72 h), 10 to 100 nM.

Source of the values: patent US11826351B2, “Compounds useful as kinase inhibitors” (Loxo Oncology, Inc., priority 2015, dated 2023).
